From ChEMBL document CHEMBL1146425, “Two new antiprotozoal 5-methylcoumarins from Vernonia brachycalyx” (J Nat Prod, 1997) come the findings set out here.

For orientation: IC50 means the concentration at which inhibition is half-maximal.

In series [1] the test system is Plasmodium falciparum. As to the kind of experiment: Antiplasmodial activity against chloroquine-resistant Plasmodium falciparum Dd2 by [G-3H]hypoxanthine uptake. The class given is functional, organism-based.
Series [2] is described as follows: Inhibition of phytohemagglutininin A-induced human lymphocyte proliferation assessed as radiolabeled thymidine uptake. The class given is cell-based.
The next series concerns Leishmania major. The series is described as follows: Antileishmanial activity against Leishmania major promastigotes assessed as inhibition of [3H]thymidine incorporation after 18 hrs by scintillation counting. The class given is functional, organism-based.
In series [3] the test system is Plasmodium falciparum. The series is described as follows: Antiplasmodial activity against chloroquine-sensitive Plasmodium falciparum 3D7 by [G-3H]hypoxanthine uptake. The class given is functional, organism-based.
Series [4] is described as follows: Inhibition of phytohemagglutininin A-induced human lymphocyte proliferation assessed as radiolabeled thymidine uptake at < 300 uM. The class given is cell-based.

On to `Cc1cccc2oc(=O)c3c(c12)O[C@@H](C)[C@@]3(C)CC(=O)[C@@H]1OC1(C)C`, for which the IC50 amounted to 54 µM in the series with Plasmodium falciparum [1], 313 µM in series [2], 37 µM in the series with Leishmania major and 160 µM in the series on Plasmodium falciparum [3]. The Activity entry in series [4] was “Not Active”.
Turning to `Cc1cccc2oc(=O)c3c(c12)O[C@H](C)[C@@]3(C)CC(=O)[C@@H]1OC1(C)C` [CYCLOISOBRACHYCOUMARINONE EPOXIDE], the IC50 with Plasmodium falciparum [1] is 54 µM; in series [2], 1810 µM; in the series with Leishmania major, 13.4 µM; in the series on Plasmodium falciparum [3], 111 µM.
